Source: patent US11882836B2, “1-amino-1-cyclopropanecarboxylic acid mixtures and uses thereof” (Valent BioSciences LLC, priority 2020, dated 2024)

Key:
Type in all cases: in vivo
[1] = test system: Prunus (stone fruit) plants; assay: Bud break and shoot development of Prunus plants, ACC and CAN17 mixtures (Example 3); details: for Mean FW: harvest
Experimental: (§1) To determine if the mixtures provided unexpected results, the observed combined efficacy (“OCE”) was divided by the expected combined efficacy (“ECE”) wherein the expected ECE is calculated by the Abbott method: ECE=A+B−(AB/100),
(§2) wherein ECE is the expected combined efficacy and in which A and B are the speed of bud break relative to control, the number of buds broken per plant relative to control, shoot length relative to control or shoot weight relative to control given by the single active ingredients. If the ratio between the OCE of the mixture and the ECE of the mixture is greater than 1, then greater than expected interactions are present in the mixture. (Gisi, Synergistic Interaction of Fungicides in Mixtures, The American Phytopathological Society, 86:11, 1273-1279, 1996).
(§3) To assess the ability of mixtures of the invention to promote and synchronize bud break, these mixtures were applied to Prunus (stone fruit) plants in the greenhouse and examined for bud break (initiation of growth) and subsequent shoot development. ACC, Dormex® (50% HC), and 17-0-0 fertilizers (CAN17), and mixtures thereof were each applied individually or sequentially (co-applied) to the shoots of Prunus plants. Plants were evaluated for bud break from 4-21 days after treatment.

Malus (apple) rootstocks = assay: Bud break and shoot development of Malus (apple) rootstocks after shoot application (Example 1); details: for Average Number of Broken Buds Per Malus Plant at Harvest / Average Number of Broken Nodes Per Centimeter of Shoot at Harvest / Fresh Weight at Harvest / Fresh Weight per Bud at Harvest: 28 days; for Fresh Weight at Harvest / Fresh Weight per Bud at Harvest: Malus
Description: as §3, with “field-grown Malus (apple) rootstocks” for “Prunus (stone fruit) plants in the greenhouse”, “HC), 15-0-0 (Erger®)” for “HC),”, “potted Malus rootstocks that were pruned to a height of 25 centimeters.” for “Prunus plants.”, “at 28” for “from 4-21”
as §1, §2

[2] = test system: Prunus (stone fruit) plants; assay: Bud break and shoot development of Prunus (stone fruit) plants in the greenhouse (Example 2); details: for FW (grams): harvest, 28 days
Experimental: as §1, §2
as §3, with “HC), 15-0-0 (Erger®)” for “HC),”, “at 28” for “from 4-21”

[3] = test system: Prunus (stone fruit) plants; assay: Bud break and shoot development of Prunus plants, ACC and CAN15 mixtures (Example 4); details: for Mean FW: harvest
Experimental: as §1
If the ratio between the OCE of the mixture and the ECE of the mixture is greater than 1, then greater than expected interactions are present in the mixture.
as §3, with “Dormex” for “Dormex®”, “15-0-0” for “17-0-0”, “(CAN15),” for “(CAN17),”, “plants.” for “plants. Plants were evaluated for bud break from 4-21 days after treatment.”

NC1(C(=O)O)CC1 [ACC, 1-amino-1-cyclopropanecarboxylic acid]
0-100% BB ([1]; ACC 100 ppm): 10 days | 50% BB ([1]; ACC 100 ppm): 11 days | Mean FW ([1]; ACC 100 ppm): 0.52 g | 0-100% BB ([1]; ACC 300 ppm): 13 days | 50% BB ([1]; ACC 300 ppm): 10 days | Mean FW ([1]; ACC 300 ppm): 1.84 g | 0-100% BB ([1]; ACC 600 ppm): 12 days | 50% BB ([1]; ACC 600 ppm): 10 days | Mean FW ([1]; ACC 600 ppm): 1.28 g | 50% BB (Malus (apple) rootstocks; ACC 300 ppm): 14 days | Average Number of Broken Buds Per Malus Plant at Harvest (Malus (apple) rootstocks; ACC 300 ppm): 6.13 | Average Number of Broken Nodes Per Centimeter of Shoot at Harvest (Malus (apple) rootstocks; ACC 300 ppm): 0.25 | Fresh Weight at Harvest (Malus (apple) rootstocks; ACC 300 ppm): 4.34 grams | Fresh Weight per Bud at Harvest (Malus (apple) rootstocks; ACC 300 ppm): 0.66 grams | 50% BB (Malus (apple) rootstocks; ACC 1000 ppm): 16 days | Average Number of Broken Buds Per Malus Plant at Harvest (Malus (apple) rootstocks; ACC 1000 ppm): 7.38 | Average Number of Broken Nodes Per Centimeter of Shoot at Harvest (Malus (apple) rootstocks; ACC 1000 ppm): 0.30 | Fresh Weight at Harvest (Malus (apple) rootstocks; ACC 1000 ppm): 3.05 grams | Fresh Weight per Bud at Harvest (Malus (apple) rootstocks; ACC 1000 ppm): 0.46 grams | 50% BB ([2]; ACC 300 ppm): 12 days | FW (grams) ([2]; ACC 300 ppm): 3.95 grams | 50% BB ([2]; ACC 1000 ppm): 7 days | FW (grams) ([2]; ACC 1000 ppm): 3.81 grams | 0-100% BB ([3]; ACC 100 ppm): 6 days | 50% BB ([3]; ACC 100 ppm): 10 days | Mean FW ([3]; ACC 100 ppm): 1.01 g | 0-100% BB ([3]; ACC 300 ppm): 5 days | 50% BB ([3]; ACC 300 ppm): 10 days | Mean FW ([3]; ACC 300 ppm): 1.46 g | 0-100% BB ([3]; ACC 600 ppm): 7 days | 50% BB ([3]; ACC 600 ppm): 9 days | Mean FW ([3]; ACC 600 ppm): 2.57 g

N#CN [HC, hydrogen cyanamide, reference compound]
0-100% BB ([1]; HC 1% (v/v)): 6 days | 50% BB ([1]; HC 1% (v/v)): 9 days | Mean FW ([1]; HC 1% (v/v)): 1.64 g | 50% BB (Malus (apple) rootstocks; HC 1% (v/v)): 12 days | Average Number of Broken Buds Per Malus Plant at Harvest (Malus (apple) rootstocks; HC 1% (v/v)): 8.13 | Average Number of Broken Nodes Per Centimeter of Shoot at Harvest (Malus (apple) rootstocks; HC 1% (v/v)): 0.325 | Fresh Weight at Harvest (Malus (apple) rootstocks; HC 1% (v/v)): 7.99 grams | Fresh Weight per Bud at Harvest (Malus (apple) rootstocks; HC 1% (v/v)): 0.98 grams | 50% BB ([2]; HC 1% (v/v)): 7 days | FW (grams) ([2]; HC 1% (v/v)): 4.76 grams | 0-100% BB ([3]; HC 1% (v/v)): 6 days | 50% BB ([3]; HC 1% (v/v)): 9 days | Mean FW ([3]; HC 1% (v/v)): 3.15 g
